The assay has as its system red blood cells (5% RBC suspension). The experiment in a line: Test Example 2-1: in vitro hemolytic activity test (upper limit 50, 80, 100 or 200 μmol/L). The format is cell-based. The settings on record: 5% RBC suspension, 37° C., one hour, read-out: hemolysis IC50. As to the method:
Nephrotoxic potentials of the compounds of the present invention except the compounds whose X is —N(R^F)—CO—X^1 and X^1 is the group represented by formula (III) and T is —N(R^a5)— were investigated by in vitro hemolytic activity test under the condition, in that, the upper limit was 50 μmol/L, 80 μmol/L, 100 μmol/L, or 200 μmol/L as the required concentration to 50% of hemolysis (IC50).
Defibrinated sterile blood was centrifuged at 700×g for 3 minutes and, and the supernatant was removed for 100% of red blood cells. After the cleaning with physiological saline, the washed blood cells was suspended in the medium (Earle's balanced salt sodium, bicarbonate, 0.1 g/L L-glutamine without phenol red), and was diluted by 5% (5% RBC suspension).
The washed blood was diluted by 5% in water for injection (solution of complete hemolysis), and was used as the indication of optical density for complete hemolysis.
The compounds of the present invention solution in DMSO (several and doubling dilutions starting from 2.5 mmol/L, 4 mmol/L, 5 mmol/L, or 10 mmol/L), DMSO as the negative control, and Amphotericin B as the positive control were used, and each 5 μL of these was added in to a well of V-form 96 well type microplate.
Finally, the maximum concentration of the compounds of the present invention solution in DMSO was 50 μmol/L, 80 μmol/L, 100 μmol/L, or 200 μmol/L by adding 245 μL of the medium or 5% RBC suspension into the well.
Two hundred fifty μL of the solution of complete hemolysis was added into another well and the microplate was incubated at 37° C. in 5% of CO2 concentration for an hour.
After the incubation, each 100 μL of supernatants in wells was collected by centrifugation of the microplate at 300×g for 5 minutes and was located on a well of flat-form 96 well type microplate. An absorbance of each supernatant was measured at wavelength of 540 nm.
Percent hemolysis was calculated by using the followed equation. The required concentration to 50% of hemolysis (IC50) was calculated based on the percent hemolysis. […] Hemolysis (%)=(CR−VM)×100÷(VL−VR) Where:
CR: Absorbance of 5% RBC suspension incubated with the compounds of the present invention solution in DMSO
VM: Absorbance of medium incubated with the compounds of the present invention solution in DMSO
VL: Absorbance of solution of complete hemolysis
VR: Absorbance of 5% RBC suspension incubated with DMSO
The “hemolysis method” in the table means any tests the upper concentration of above IC50 are 50 μmol/L, 80 μmol/L, 100 μmol/L or 200 μmol/L. The “>50”, “>80”, “>100” or “>200” in the table means above IC50 value exceeded the each upper concentration.

[1] abbreviates: hemolysis method 80 (upper concentration 80 μmol/L).
The mark [2] stands for this setting: hemolysis method 50 (upper concentration 50 μmol/L).
[3] abbreviates: hemolysis method 100 (upper concentration 100 μmol/L).
[4] abbreviates: Erythrocyte, 1 h, hemolysis method 50 (upper concentration 50 μmol/L).

The values that follow come from US10696707B2, “Polyene macrolide derivative” (Shionogi & Co., Ltd., priority 2014, dated 2020).

Structures are written as SMILES. pIC50: −log10 of the molar value. Like-named read-outs stand apart in the source and are kept apart here.

`C[C@@H]1[C@H](O)[C@@H](C)/C=C/C=C/C=C/C=C/C=C/C=C/C=C/[C@H](O[C@@H]2O[C@H](C)[C@@H](O)[C@H](N)[C@@H]2O)C[C@@H]2O[C@](O)(C[C@@H](O)C[C@@H](O)[C@H](O)CC[C@@H](O)C[C@@H](O)CC(=O)O[C@H]1C)C[C@H](O)[C@H]2NC(=O)NCC[N+](C)(C)C` [I-53]: under setting [1], the pIC50 is less than 4.10.

With `C[C@@H]1[C@H](O)[C@@H](C)/C=C/C=C/C=C/C=C/C=C/C=C/C=C/[C@H](O[C@@H]2O[C@H](C)[C@@H](O)[C@H](N)[C@@H]2O)C[C@@H]2O[C@](O)(C[C@@H](O)C[C@@H](O)[C@H](O)CC[C@@H](O)C[C@@H](O)CC(=O)O[C@H]1C)C[C@H](O)[C@H]2NC(=O)N1CCC(N(C)C)CC1` [I-54], the pIC50 under setting [1] is less than 4.10.

Regarding `COC(=O)CCCNC(=O)N[C@H]1[C@@H]2C[C@@H](O[C@@H]3O[C@H](C)[C@@H](O)[C@H](N)[C@@H]3O)/C=C/C=C/C=C/C=C/C=C/C=C/C=C/[C@H](C)[C@@H](O)[C@@H](C)[C@H](C)OC(=O)C[C@H](O)C[C@H](O)CC[C@@H](O)[C@H](O)C[C@H](O)C[C@](O)(C[C@@H]1O)O2` [I-55], under setting [2], the negative-log IC50 (pIC50) was less than 4.30.

For the molecule `C[C@@H]1[C@H](O)[C@@H](C)/C=C/C=C/C=C/C=C/C=C/C=C/C=C/[C@H](O[C@@H]2O[C@H](C)[C@@H](O)[C@H](N)[C@@H]2O)C[C@@H]2O[C@](O)(C[C@@H](O)C[C@@H](O)[C@H](O)CC[C@@H](O)C[C@@H](O)CC(=O)O[C@H]1C)C[C@H](O)[C@H]2NC(=O)NC1CN(C)C1` [I-62], the negative-log IC50 (pIC50) under setting [3] is 4.30.

As to `C[C@@H]1[C@H](O)[C@@H](C)/C=C/C=C/C=C/C=C/C=C/C=C/C=C/[C@H](O[C@@H]2O[C@H](C)[C@@H](O)[C@H](N)[C@@H]2O)C[C@@H]2O[C@](O)(C[C@@H](O)C[C@@H](O)[C@H](O)CC[C@@H](O)C[C@@H](O)CC(=O)O[C@H]1C)C[C@H](O)[C@H]2NC(=O)NCCC(N)=O` [I-81], the pIC50 under setting [2] is less than 4.30.

Consider `C[C@@H]1[C@H](O)[C@@H](C)/C=C/C=C/C=C/C=C/C=C/C=C/C=C/[C@H](O[C@@H]2O[C@H](C)[C@@H](O)[C@H](N)[C@@H]2O)C[C@@H]2O[C@](O)(C[C@@H](O)C[C@@H](O)[C@H](O)CC[C@@H](O)C[C@@H](O)CC(=O)O[C@H]1C)C[C@H](O)[C@H]2NC(=O)NCCNC(N)=O` [I-93], for which the pIC50 under setting [2] is less than 4.30.

In the case of `C[C@@H]1[C@H](O)[C@@H](C)/C=C/C=C/C=C/C=C/C=C/C=C/C=C/[C@H](O[C@@H]2O[C@H](C)[C@@H](O)[C@H](N)[C@@H]2O)C[C@@H]2O[C@](O)(C[C@@H](O)C[C@@H](O)[C@H](O)CC[C@@H](O)C[C@@H](O)CC(=O)O[C@H]1C)C[C@H](O)[C@H]2NC(=O)NCC[C@H](O)CO` [I-146], under setting [2], the negative-log IC50 (pIC50) is less than 4.30.

Consider `CC1C=CC=CC=CC=CC=CC=CC=CC(OC2OC(C)C(O)C(N)C2O)CC2OC(O)(CC(O)CC(O)C(O)CCC(O)CC(O)CC(=O)OC(C)C(C)C1O)CC(O)C2NC(=O)NC1CCCC1O` (stereo not shown) [I-207], for which the negative-log IC50 (pIC50) under setting [3] was less than 4.00.

As for `C[C@@H]1[C@H](O)[C@@H](C)/C=C/C=C/C=C/C=C/C=C/C=C/C=C/[C@H](O[C@@H]2O[C@H](C)[C@@H](O)[C@H](N)[C@@H]2O)C[C@@H]2O[C@](O)(C[C@@H](O)C[C@@H](O)[C@H](O)CC[C@@H](O)C[C@@H](O)CC(=O)O[C@H]1C)C[C@H](O)[C@H]2NC(=O)N(N)CCO` [I-212], the negative logarithm of the IC50 (pIC50) under setting [3] is less than 4.00.

`C[C@@H]1[C@H](O)[C@@H](C)/C=C/C=C/C=C/C=C/C=C/C=C/C=C/[C@H](O[C@@H]2O[C@H](C)[C@@H](O)[C@H](N)[C@@H]2O)C[C@@H]2O[C@](O)(C[C@@H](O)C[C@@H](O)[C@H](O)CC[C@@H](O)C[C@@H](O)CC(=O)O[C@H]1C)C[C@H](O)[C@H]2NC(=O)NC(C)(CO)CO` [I-213]: under setting [3], the pIC50 is less than 4.00.

As to `C[C@@H]1[C@H](O)[C@@H](C)/C=C/C=C/C=C/C=C/C=C/C=C/C=C/[C@H](O[C@@H]2O[C@H](C)[C@@H](O)[C@H](N)[C@@H]2O)C[C@@H]2O[C@](O)(C[C@@H](O)C[C@@H](O)[C@H](O)CC[C@@H](O)C[C@@H](O)CC(=O)O[C@H]1C)C[C@H](O)[C@H]2NC(=O)N1CC(NC[C@H](O)CO)C1` [I-226], the pIC50 under setting [2] was less than 4.30.

In the case of `C[C@@H]1[C@H](O)[C@@H](C)/C=C/C=C/C=C/C=C/C=C/C=C/C=C/[C@H](O[C@@H]2O[C@H](C)[C@@H](O)[C@H](N)[C@@H]2O)C[C@@H]2O[C@](O)(C[C@@H](O)C[C@@H](O)[C@H](O)CC[C@@H](O)C[C@@H](O)CC(=O)O[C@H]1C)C[C@H](O)[C@H]2NC(=O)NC1CCS(=O)(=O)C1` (stereo partly shown) [I-231], under setting [2], the pIC50 was less than 4.30.

As for `C[C@@H]1[C@H](O)[C@@H](C)/C=C/C=C/C=C/C=C/C=C/C=C/C=C/[C@H](O[C@@H]2O[C@H](C)[C@@H](O)[C@H](N)[C@@H]2O)C[C@@H]2O[C@](O)(C[C@@H](O)C[C@@H](O)[C@H](O)CC[C@@H](O)C[C@@H](O)CC(=O)O[C@H]1C)C[C@H](O)[C@H]2NC(=O)NC(CNS(N)(=O)=O)CN(C)C` (stereo partly shown) [I-234], under setting [2], the pIC50 is less than 4.30.

Take `C[C@@H]1[C@H](O)[C@@H](C)/C=C/C=C/C=C/C=C/C=C/C=C/C=C/[C@H](O[C@@H]2O[C@H](C)[C@@H](O)[C@H](N)[C@@H]2O)C[C@@H]2O[C@](O)(C[C@@H](O)C[C@@H](O)[C@H](O)CC[C@@H](O)C[C@@H](O)CC(=O)O[C@H]1C)C[C@H](O)[C@H]2NC(=O)NCCOCCS(C)(=O)=O` [I-241]: the pIC50 under setting [2] is less than 4.30.

As to `C[C@@H]1[C@H](O)[C@@H](C)/C=C/C=C/C=C/C=C/C=C/C=C/C=C/[C@H](O[C@@H]2O[C@H](C)[C@@H](O)[C@H](N)[C@@H]2O)C[C@@H]2O[C@](O)(C[C@@H](O)C[C@@H](O)[C@H](O)CC[C@@H](O)C[C@@H](O)CC(=O)O[C@H]1C)C[C@H](O)[C@H]2NC(=O)NC(CCO)C(=O)O` (stereo partly shown) [I-249], the negative logarithm of the IC50 (pIC50) under setting [2] is less than 4.30.

With `C[C@@H]1[C@H](O)[C@@H](C)/C=C/C=C/C=C/C=C/C=C/C=C/C=C/[C@H](O[C@@H]2O[C@H](C)[C@@H](O)[C@H](N)[C@@H]2O)C[C@@H]2O[C@](O)(C[C@@H](O)C[C@@H](O)[C@H](O)CC[C@@H](O)C[C@@H](O)CC(=O)O[C@H]1C)C[C@H](O)[C@H]2NC(=O)NC1(C(=O)O)COC1` [I-252], under setting [4], the pIC50 was less than 4.30.

In the case of `C[C@@H]1[C@H](O)[C@@H](C)/C=C/C=C/C=C/C=C/C=C/C=C/C=C/[C@H](O[C@@H]2O[C@H](C)[C@@H](O)[C@H](N)[C@@H]2O)C[C@@H]2O[C@](O)(C[C@@H](O)C[C@@H](O)[C@H](O)CC[C@@H](O)C[C@@H](O)CC(=O)O[C@H]1C)C[C@H](O)[C@H]2NC(=O)NC(CO[C@H]1O[C@H](CO)[C@@H](O)[C@H](O)[C@@H]1O)CO[C@H]1O[C@H](CO)[C@@H](O)[C@H](O)[C@@H]1O` [I-254], under setting [4], the negative-log IC50 (pIC50) was less than 4.30.

Take `C[C@@H]1[C@H](O)[C@@H](C)/C=C/C=C/C=C/C=C/C=C/C=C/C=C/[C@H](O[C@@H]2O[C@H](C)[C@@H](O)[C@H](N)[C@@H]2O)C[C@@H]2O[C@](O)(C[C@@H](O)C[C@@H](O)[C@H](O)CC[C@@H](O)C[C@@H](O)CC(=O)O[C@H]1C)C[C@H](O)[C@H]2NC(=O)NOCC(CO)CO` [I-255]: the pIC50 under setting [2] was less than 4.30.

`C[C@@H]1[C@H](O)[C@@H](C)/C=C/C=C/C=C/C=C/C=C/C=C/C=C/[C@H](O[C@@H]2O[C@H](C)[C@@H](O)[C@H](N)[C@@H]2O)C[C@@H]2O[C@](O)(C[C@@H](O)C[C@@H](O)[C@H](O)CC[C@@H](O)C[C@@H](O)CC(=O)O[C@H]1C)C[C@H](O)[C@H]2NC(=O)NC1(C#N)COC1` [I-258]: the negative-log IC50 (pIC50) under setting [2] was less than 4.30.

The term pIC50 denotes −log10 of the IC50, conventionally taken in molar units.
